Source: PubChem BioAssay AID624491 (Broad Institute, 2012)

System: D54 ERlucT glycosylation luciferase reporter, luminescence, 24 h
Assay: N-linked glycosylation inhibitors, luciferase reporter, dose response, D54 ERlucT cells, luminescence, cherry-picks (AID 624491);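 also: signal gain reflects blocked N-linked glycosylation of a luciferase reporter; actives raise luciferase signal so AC26 marks activators of the reporter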

Compound	AC26 [nM]
CC1(C)Cc2nc3sc4c(SCC(=O)NCc5ccccc5)ncnc4c3cc2CO1	160
C[C@@H](NC(=O)c1nc[nH]c1C(=O)N1CCN(c2ccccc2)CC1)c1ccccc1	2110
Cc1ccc(OCCN2C(=O)C(=O)c3cc(C)ccc32)cc1	2460
CCOC(=O)C(C)Oc1cccc2c(=O)n(CC(=O)NCc3ccco3)ccc12 (stereo not drawn)	1380
CC1(C(=O)Nc2ccc(Cl)cc2)Cc2c(-c3cccc(C(N)=O)c3)ccnc2O1 (stereo not drawn)	15400
COc1ccc2c(c1)[C@H]1[C@H](CO2)[C@H](c2ccccc2)[C@]2(C)C(=O)Nc3ccc(Br)cc3C(=O)N12	188
COc1ccc2c(c1)[C@H]1[C@H](CO2)[C@H](c2ccccc2)[C@]2(C)C(=O)Nc3cc(F)ccc3C(=O)N12	19
COC(=O)Nc1nc2ccc(-c3n[nH]c(=O)c4ccccc34)cc2[nH]1	3350
O=C(N/N=C/c1ccccn1)c1cc(-c2ccncc2)nc2ccccc12	499
O=C(/C=C/Sc1ccccc1)c1ccc(Cl)cc1	727
N#Cc1c(N)n(CCc2ccc(F)cc2)c2nc3ccccc3nc12	1590
Cc1nc(-c2ccccc2)sc1-c1nc(-c2ccncc2)ncc1S(=O)(=O)c1ccccc1	956
Cn1c(-c2ccccc2)c(/C=N/NC(=O)c2ccc(O)cc2)c2ccccc21	647
O=C(/C=C/c1ccccc1)c1ccccc1	6780
Cc1ccc2nc(SCc3nnc(-c4ccccc4[N+](=O)[O-])o3)c(C#N)cc2c1	5790
NS(=O)(=O)c1cc(C(=O)NCCOc2ccccc2)c(Cl)cc1Cl	5620
C[C@H](CO)N1C[C@H](C)[C@@H](CN(C)S(=O)(=O)c2cccs2)Oc2c(NC(=O)Cc3ccccc3)cccc2C1=O	2250
OCC1OC(n2cnc3c(SCc4ccccc4)ncnc32)C(O)C1O (stereo not drawn)	1050
O=c1c2ccccc2sc2c(CO)ccc(NCCN3CCCCC3)c12	705
COc1cc(CN2CCc3ccccc3C2)ccc1O	696
Cc1ccc(-c2cc(C(=O)Nc3ccncc3)c3ccccc3n2)cc1	1910
Cc1ccc(-n2nc(C)c(/C=N/NC(=O)c3cccs3)c2Cl)cc1	4230

Compound	AC26 [nM]
NNC(=O)c1oc2nc(-c3ccco3)cc(-c3ccco3)c2c1N	4260
CCOc1ccccc1C1CC(=O)Nc2cc3c(cc21)OCO3 (stereo not drawn)	4370
CC[C@]12c3[nH]c4cc(CCC(=O)N(C)C)ccc4c3CCN1C(=O)[C@@H](CC(=O)NC/C=C(\C)CCC=C(C)C)C[C@@H]2C(=O)N1CCN(C(=O)c2ccco2)CC1	2860
Cc1cc(NC(=O)CN2C(=O)NC3(CCCCCC3)C2=O)ccc1Br	1570
CCCCn1c(SCc2c(C)noc2C)nc2cc(S(N)(=O)=O)ccc21	1190
O=C(Oc1ccccc1C(=O)Nc1ccccc1)c1ccccc1Br	1670
COc1ccc(/C=N\NC(=O)c2sccc2C)cc1Cn1nc(C)cc1C	507
COc1ccc(-c2cc(C(F)F)n3ncc(C(=O)N4CCc5ccccc54)c3n2)cc1	2500
CCCCC[C@H](O)/C=C/[C@@H]1[C@@H](C/C=C\CCCC(=O)OC)[C@@H](O)C[C@H]1O	10.5
Cc1cccc([C@@H]2[C@@H]3C(=O)N(Cc4ccccc4)C(=O)[C@@H]3[C@]3(Cc4ccccc4)C(=O)N(c4cccc(F)c4)C(=O)N23)c1	11400
c1ccc(-c2cc(-c3nnc4n3N=C(c3ccc5ccccc5c3)CS4)[nH]n2)cc1	2110
CC1(C(=O)NCc2cccs2)Cc2c(-c3ccc4c(c3)OCO4)ccnc2O1 (stereo not drawn)	2060
Cc1ccc(S(=O)(=O)c2cc3c(=O)n4ccccc4nc3n(CCc3ccccc3)c2=N)cc1	84.5
Cc1ccc(-c2nc(C(=O)NCCCN(C)C)cc3c2[nH]c2ccccc23)cc1	4300
O=S(=O)([N-]c1nc2ccccc2nc1-n1cc[n+](Cc2ccccc2)c1)c1ccc(Br)cc1	236
C=CCN1c2ccccc2[C@]23C[C@@H](C(=O)OC)N(C(=O)c4ccc(Br)cc4)C2=NC(C(=O)OC)=C(C(=O)OC)[C@H]13	6060
c1ccc2c(c1)nc(N1CCOCC1)c1c3ccccc3[nH]c21	7170
CCn1c2ccccc2c2cc(NC(=O)c3cc(OC)c(OC)c(OC)c3)ccc21	605
CC(=O)c1cccc(Nc2cc(C)nc3c(C)cc(C)cc23)c1	4210
COc1ccc(C=CC(=O)c2c(OC)cc(OC)c(OC)c2O)cc1	4040
CCN(CC)CCNc1nc2cc(OC)c(OC)cc2c2nc(-c3ccccc3)nn12	1860
COc1cc2c(cc1OC)C(c1ccccc1)N(C(=O)c1ccccc1)CC2 (stereo not drawn)	869

Compound	AC26 [nM]
CN=C(SCC(=O)c1cccc(Cl)c1)c1c(O)n(C)c(=O)n(C)c1=O	2590
CCC(Cc1ccccc1)NC(=O)c1ccc2nc(N3CCOCC3)sc2c1 (stereo not drawn)	1250
O=C(c1ncn(Cc2ccccc2)c1C(=O)N1CCN(c2ccccc2)CC1)N1CCN(c2ccccc2)CC1	513
CCC1=Nc2cc(C(=O)NCCCOC)ccc2Sc2ccccc21	422
NC(=O)/C=C/C(=O)Nc1ccc(Cl)cc1	15100
COc1ccc(-c2oc3cc(O)c(OC)c(O)c3c(=O)c2OC)cc1O	246
COc1cc(-c2[nH]ncc2CN2CCSCC2)cc(OC)c1OC	4790
CC1CN(C(=O)c2ccc(COc3ccc4ccccc4c3)o2)CC(C)O1 (stereo not drawn)	11200
CC(C)Oc1ccccc1C1CC(=O)Nc2cc3c(cc21)OCCO3 (stereo not drawn)	844
Cc1noc(C)c1-c1ccc(C(=O)NCCc2ccccc2)c2occc12	4410
Cc1c(Cl)cccc1N=Cc1ccc([N+](=O)[O-])s1	1870
Oc1ccc(-c2csc(-c3c[nH]c4ccccc34)n2)c(O)c1	3410
O=C(NCCCn1ccnc1)c1cc(-c2ccccc2)on1	3170
COc1ccc(C(=O)/C=C\c2ccc(NC(=O)c3cccs3)cc2)cc1	2000
CCOC(=O)c1sc(Nc2nc(C)cc(C)n2)nc1C	949
COc1ccc(NC(=O)c2cc(S(=O)(=O)N(C)C)ccc2N2CCCC2)cc1Cl	4800
Cc1ccccc1NS(=O)(=O)c1ccc2c3c(cccc13)C(=O)N2C	3400
COc1ccccc1-c1cc(NC=O)c2ncc(-c3cccc(C(=O)N(C)C)c3)n2c1	4020
COc1cc(C(=O)NC2CCN(C)CC2)ccc1Nc1ncc2c(n1)N(CCc1ccccc1)CCC(=O)N2C	396
Cn1c(=O)cc(OCCCC(=O)Nc2ccc3c(c2)OCCO3)c2ccccc21	3060
COc1ccc(C(=O)N/N=C/C23CC[C@@H](O)CC2(O)CC[C@@H]2[C@@H]3CCC3(C)C(C4=CC(=O)OC4)CCC23O)cc1 (stereo partly drawn)	5710
O=c1cc(-c2ccccc2)[nH]c2ccccc12	433

Compound	AC26 [nM]
O=C(c1ccc(Cl)c(S(=O)(=O)N2CCCCC2)c1)N1CCN(Cc2ccccc2)CC1	4150
Cc1ccc2nc(/C(C#N)=C/c3cn[nH]c3-c3ccc(F)cc3)[nH]c2c1	1170
CCC12CCC3c4ccc(O)cc4CCC3C1CC(O)C2O (stereo not drawn)	10000
COc1ccc(/C=N/NC(=O)c2cccnc2)cc1COc1ccc(NC(C)=O)cc1	1990
O=C(NCCN1C(=O)S/C(=C\c2ccccc2F)C1=O)C1=COCCO1	52.9
O=C(COC(=O)c1cccc(Br)c1)Nc1cccc2c1C(=O)c1ccccc1C2=O	4290
Cc1ccc(-c2cnc(C3CC3)o2)cc1S(=O)(=O)Nc1ccccc1	9070
Cc1c(-c2nc(N)nc(Nc3ccccc3)n2)oc2ccccc12	3890
COCCCNC(=O)Cc1c(C)c2c(cc(C)c3c(C(C)(C)C)coc32)oc1=O	1510
CC(=O)Nc1cccc(-c2ccnc3c2CC(C(=O)NCc2cccc(Cl)c2)O3)c1 (stereo not drawn)	9220
COc1ccc(/C=N/NC(=O)c2c(C)nc3ccc(Br)cn23)cc1OC	2520
COc1cc(C(=O)NC2CCN(C)CC2)ccc1Nc1ncc2c(n1)N(C1CCCCC1)CCC(=O)N2C	11.3
CC1=Nc2cc(C(=O)NCC3CCCO3)ccc2Sc2ccc(C)cc21 (stereo not drawn)	662
CCOc1cc(C)nc(NCc2ccccc2)n1	14300
COC(=O)Nc1nc(C)c(C(=O)c2ccccc2)s1	7950
Cn1cccc1/C=C1\C(=O)NC(=O)N(Cc2ccccc2)C1=O	267
Nc1nc(-c2ccccc2)cc(-c2ccccc2O)n1	4980
COc1cc(F)ccc1-c1csc(C(NC(C)=O)c2ccccc2)n1 (stereo not drawn)	11.1
CN=c1sc(C(=O)Nc2cccc(Cl)c2)cc(=O)n1C	349
COC(=O)c1cn(C(=O)/C=C/c2ccc(OC)c(OC)c2)c2ccccc12	1640
CC(=O)Nc1cccc(-c2ccnc3c2CC(C)(C(=O)NCc2ccco2)O3)c1 (stereo not drawn)	617
CCCCCCC(=O)N(O)C1CC(=O)N(Cc2ccccc2)C1=O (stereo not drawn)	6200

Compound	AC26 [nM]
COc1ccc(NC(=O)C(=O)NCCC2CCCCN2S(=O)(=O)c2ccccc2)cc1 (stereo not drawn)	5680
CCc1ccc(OCC(=O)Nc2ccc(-c3cc4ccccc4oc3=O)c(OC)c2)cc1	3090
Cc1ccc(NCCN(C)C)c2c(=O)c3cc(O)ccc3sc12	84.5
NC(=O)CC(NC(=O)Cc1ccc(Br)cc1)c1ccc(NC2CCN(Cc3ccccc3)CC2)c([N+](=O)[O-])c1 (stereo not drawn)	496
Cc1ccc(C(=O)/C=C/c2ccc(Br)cc2)o1	16600
CC(NC(=O)c1ccc2ccccc2n1)c1ccc(S(N)(=O)=O)cc1 (stereo not drawn)	4020
O=C(CN1C(=O)NC2(CCCCCC2)C1=O)Nc1ccc2c(c1)CCC2	1970
COc1cccc2nc3c(C(=O)NCCN(C)C)cccc3cc12	164
COc1cccc(/C=N/NC(=O)c2ccc(N3CCCC3=O)cc2)c1	3350
CCOc1nc(N=C(N)N)nc2c(C)cccc12	2480
Cc1ccnc(NC(=O)CN2C(=O)NC(C)(c3ccc4ccccc4c3)C2=O)c1 (stereo not drawn)	11400
CCCC(=O)Nc1nc2ccc(NC(=O)c3c(F)c(F)c(OC)c(F)c3F)cc2s1	974
COc1ccc(C(=O)/C=C2/C(=O)Nc3ccccc32)c(OC)c1	4070
CC(=O)c1c(C)[nH]c(C(=O)Nc2cccc(S(=O)(=O)N3CCCC3)c2)c1C	2610
CCN(CC)CCOc1c(Br)ccc2c1sc1nc3n(c(=O)c12)CCC3	3070
COc1ccccc1C1CC(=O)Nc2cc3c(cc21)OCCO3 (stereo not drawn)	10500
COc1ccc(-c2nc(NCCCN(C)C)c3ccccc3n2)cc1	2490
Cc1cc(C)nc(N2Cc3ccccc3C2=N)n1	4560
COc1cc(C2c3[nH]c4ccccc4c3CC3COC(=O)N32)cc(OC)c1O (stereo not drawn)	780
CC(C)Sc1ccccc1C(=O)Nc1ccc2c(c1)n(C)c(=O)n2C	4830
